Experimental data taken from patent US20240398894A1, “ANGIOGENIC CONTROL, PREFERABLY COMBINED WITH GLYCAEMIC CONTROL” (BIOTEMPT B.V., priority 2021, published 2024).
Each block holds one molecule with its values, some of them ahead of it. Where a SMILES comes first, the peptide text is derived from it.

Experiments:
[1] = test system: LPS-activity; settings: cited from earlier work
[2] = test system: TNF-α and IL-6; settings: rat, hemorrhagic shock; cited from earlier work
[3] = test system: NOD mice; settings: cited from earlier work
[4] = test system: mTOR; settings: piglets; cited from earlier work
[5] = test system: human pulmonary microvascular endothelial cells; assay: Microvascular angiogenesis (sprouting) assay in Matrigel; assay type: cell-based; settings: for angiogenic (core) activity in sprouting assay: human vascular endothelial cells, as demonstrated herein; for angiogenic activities (total tube length): Matrigel, increasing concentrations, t=24 h, data not shown
Description: Human pulmonary microvascular endothelial cells (Hpmec, HUVE, or other vascular EC, may also be used) were cultured in EBM-2 medium (Lonza, CC-3156) supplemented with 10% FBS and all components present in the bullet kit (Lonza, CC-4147) containing human recombinant FGF-B, human recombinant VEGF, human recombinant R3-IGF-1, ascorbic acid, human recombinant EGF and GA-1000 (Gentamicin sulfate-Amphotericin). 24 hours prior to the assay Hpmec were starved in EBM-2 medium containing 0.5% FBS instead of 10% FBS. For introduction in the angiogenesis assay, endothelial cells were washed 2 times with warm PBS, trypsinized and resuspended in serum free EBM-2 medium. For the angiogenesis assay, Matrigel (Fisher Scientific, Landsmeer, The Netherlands #11523550) was diluted 1:1 in serum-free EBM-2 medium and plated in a 96-well plate (50 μL). After polymerization, the cells were combined with the experimental peptide fragments and added on top of the Matrigel (100 μL). Pictures of the microvascular network were taken after 24 hours of incubation with a 4× objective and analysed using the plug-in angiogenesis analyser in ImageJ.

[6] = test system: streptozotocin-induced diabetic mice; settings: supplement using osmotic pumps; cited from earlier work
[7] = test system: human umbilical vein endothelial cells; settings: dose-dependent; cited from earlier work
[8] = test system: human CD4+ cells; assay: Human CD4+ lymphocyte-migration assay (modified Boyden chamber); assay type: cell-based
Description: A: Synthetic human-C-peptide (1-31, having ERC-binding-motif LGGGPG) was tested in human CD4+ lymphocyte-migration assay together with negative and treatment controls: no C-peptide added, scrambled version of human C-peptide (1-31, lacking any xGxxPx motif) and pig-C-peptide (1-29, ˜74% similarity to human C-peptide but lacking any xGxxPx motif; alignment with human C-peptide shown herewith).
Freshly isolated human CD4+ cells were incubated for 3 h with the indicated C-peptide variants (10 nM) to assess the effect on cell migration in a modified Boyden chamber. Results are expressed as the mean±SEM, ****P<0.001 treatments vs. control.
B: Freshly isolated human CD4 cells were preincubated for 3 h with V14 peptide (10 μM) or lactose (10 mM) and then stimulated with C-peptide (1-31) for 3 H as indicated in (A). Results are expressed as the mean±SEM. *P<0.05, ****P<0.001 treatments vs. control, […] ###P<0.001 treatments vs. human C-peptide (1-31).

[9] = Distribution and elimination of intravenously injected [14C]-AQGV from mice; assay type: in vivo, male CD-1 mice
Description: The present study, which was conducted by TNO Biosciences, Utrechtseweg, Netherlands, was designed to provide data on the distribution and metabolism of [^14C]-AQGV (Ala-Gln-[1-^14C]Gly-Val) in male CD-1 mice following a single intravenous dose of 50 mg/kg. To this end, mice were sacrificed at 10, 30 and 60 minutes, and 6 and 24 hours after administration of radiolabeled AQGV, counts in various tissues were determined, and the radioactivity present in the urine and plasma were analyzed by HPLC.

[10] = after 10 minutes, 50 mg/kg i.v.

Molecule: LQGV
LPS-activity in vitro [1]: significantly inhibited
systemic release of IL-6 [2]: significantly (p<0.001) prevented
systemic release of TNF-α [2]: significantly (p<0.001) prevented
T1D-onset [3]: significantly (p<0.0001) delay

Molecule: C[C@H](N)C(=O)N[C@@H](CCC(N)=O)C(=O)O [AQ, Alanyl-glutamine] (H-Ala-Gln-OH)
autophagy-inhibition [4]: demonstrated

Molecule: LOGA
LPS-activity in vitro [1]: significantly inhibited

Molecule: VLPALP
LPS-activity in vitro [1]: significantly inhibited
T1D-onset [3]: significantly (p<0.0001) delay

Molecule: VGVAPGVGVAPGVGVAPG [18-meric peptide derived from human elastin]
angiogenic (core) activity in sprouting assay [5]: core-angiogenic activities have been demonstrated

Molecule: ALPALP
LPS-activity in vitro [1]: significantly inhibited

Molecule: VLPAAP
LPS-activity in vitro [1]: significantly inhibited

Molecule: LGGGPG
angiogenic activities (total tube length) [5]: significantly induced angiogenic activities

Molecule: LAGV
LPS-activity in vitro [1]: significantly inhibited
systemic release of IL-6 [2]: significantly (p<0.001) prevented
systemic release of TNF-α [2]: significantly (p<0.001) prevented

Molecule: VGVAPG
angiogenic activities (total tube length) [5]: significantly induced angiogenic activities
angiogenic (core) activity in sprouting assay [5]: core-angiogenic activities have been demonstrated

Molecule: VLAALP
LPS-activity in vitro [1]: significantly inhibited

Molecule: human C-peptide
rate of skin wound closure [6]: significantly increased
concentration of maximal effect on endothelial cell migration and tube formation [7]: 0.5 nM
effect on CD4+ lymphocyte migration ([8]; 10 nM, 3 h incubation): upregulating effect

Molecule: AQGV
LPS-activity in vitro [1]: significantly inhibited
systemic release of IL-6 [2]: significantly (p<0.001) prevented
systemic release of TNF-α [2]: significantly (p<0.001) prevented

Molecule: PGAYPG
angiogenic activities (total tube length) [5]: significantly induced angiogenic activities
angiogenic (core) activity in sprouting assay [5]: have angiogenic core activities

Molecule: VAPALP
LPS-activity in vitro [1]: significantly inhibited

Molecule: LQAV
LPS-activity in vitro [1]: significantly inhibited

Molecule: VLPALA
LPS-activity in vitro [1]: significantly inhibited

Molecule: OC[C@H]1O[C@@H](O[C@H]2[C@H](O)[C@@H](O)C(O)O[C@@H]2CO)[C@H](O)[C@@H](O)[C@H]1O (stereo partly drawn) [lactose]
effect on CD4+-migratory effects of C-peptide ([8]; preincubated 3 h with V14 peptide (10 μM) or lactose (10 mM), then C-peptide (1-31)): blunted

average total recovery of radioactivity ([9]; 10 minutes after dose administration): 83.2%
average total recovery of radioactivity ([9]; 30 minutes after dose administration): 70.5%
average total recovery of radioactivity ([9]; 60 minutes after dose administration): 62.9%
average total recovery of radioactivity ([9]; 6 hours after dose administration): 52.6%
average total recovery of radioactivity ([9]; 24 hours after dose administration): 50.8%
administered radioactivity excreted in feces ([9]; after 24 hours): 2.6%
administered radioactivity excreted in urine ([9]; after 24 hours): 10.2%
removal from the blood ([9]; after intravenous injections): rapidly removed
radioactivity in the blood, amount present if all of the counts were in intact peptide ([9]; blood, 10 minutes after single intravenous dose of 50 mg/kg): 17.2 µg/g
concentration of "peptide" (radioactivity) in kidneys [9, 10]: 362 µg/g
concentration of "peptide" (radioactivity) in kidneys ([9]; after 24 hours, 50 mg/kg i.v.): 61.9 µg/g
concentration of "peptide" (radioactivity) in liver [9, 10]: 105 µg/g
concentration of "peptide" (radioactivity) in liver ([9]; after 24 hours, 50 mg/kg i.v.): 37.6 µg/g
concentration of "peptide" (radioactivity) in lung ([9]; lung, after 10 minutes, 50 mg/kg i.v.): 75.2 µg/g
time to full hydrolysis of the peptide after administration ([9]; mice): 15 min
parent compound in plasma ([9]; plasma after 10 minutes, HPLC, 50 mg/kg i.v.): No parent compound could be detected
concentration of "peptide" (radioactivity) in skin ([9]; skin, after 24 hours, 50 mg/kg i.v.): 37.5 µg/g
concentration of "peptide" (radioactivity) in spleen [9, 10]: 74.7 µg/g
concentration of "peptide" (radioactivity) in spleen ([9]; after 24 hours, 50 mg/kg i.v.): 39.3 µg/g
concentration of "peptide" (radioactivity) in testis ([9]; testis, after 10 minutes, 50 mg/kg i.v.): 85.7 µg/g
concentration of "peptide" (radioactivity) in thymus ([9]; thymus, after 24 hours, 50 mg/kg i.v.): 43.1 µg/g
administered radioactivity exhaled as volatiles, most likely 14C-CO2 ([9]; up to 24 hours): About 50%
parent compound in urine ([9]; urine, HPLC, 50 mg/kg i.v.): No parent compound was detected
Molecule: Ala-Gln-[1-^14C]Gly-Val [[^14C]-AQGV]

Molecule: GAYPGAPGAYPGAPAPGV [18-meric peptide derived from the human N-terminal fragment of galectin-3]
angiogenic (core) activity in sprouting assay [5]: have angiogenic core activities
